Measured values taken from patent publication US7098343B2, “Compound” (Sterix, Limited, priority 2001, dated 2006).
Blank lines part the entries; values can stand above or below the compound they belong to.

Tests used:
uterus = conditions: cited from earlier work
steroid sulphatase [1] = target: T1, steroid sulphatase (Homo sapiens, UniProt P08842); conditions: cited from earlier work
T1 sequence (P08842 22-583): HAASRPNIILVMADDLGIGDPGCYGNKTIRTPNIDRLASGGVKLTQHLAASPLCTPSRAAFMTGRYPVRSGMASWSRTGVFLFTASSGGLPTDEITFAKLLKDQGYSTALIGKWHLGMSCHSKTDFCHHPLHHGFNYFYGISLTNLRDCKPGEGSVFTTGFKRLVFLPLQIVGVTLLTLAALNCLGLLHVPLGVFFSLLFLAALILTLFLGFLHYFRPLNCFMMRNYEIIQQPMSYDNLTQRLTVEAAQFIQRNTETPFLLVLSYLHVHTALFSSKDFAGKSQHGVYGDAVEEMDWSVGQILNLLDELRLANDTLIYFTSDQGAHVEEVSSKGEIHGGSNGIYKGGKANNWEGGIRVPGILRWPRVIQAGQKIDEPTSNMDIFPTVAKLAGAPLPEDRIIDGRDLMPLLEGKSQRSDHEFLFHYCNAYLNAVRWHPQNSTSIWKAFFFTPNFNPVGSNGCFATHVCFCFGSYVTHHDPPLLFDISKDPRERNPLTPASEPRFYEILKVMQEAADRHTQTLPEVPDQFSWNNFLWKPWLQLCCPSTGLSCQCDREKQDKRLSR

aromatase = target: T2, aromatase (Homo sapiens, UniProt P11511); experiment: Aromatase activity in JEG3 choriocarcinoma cells (Protocol 6); type: cell-based
T2 construct: Aromatase activity is measured in JEG3 choriocarcinoma cells, obtained from the ATCC; host or cells: JEG3 choriocarcinoma cells (intact monolayers)
T2 sequence (P11511 1-503): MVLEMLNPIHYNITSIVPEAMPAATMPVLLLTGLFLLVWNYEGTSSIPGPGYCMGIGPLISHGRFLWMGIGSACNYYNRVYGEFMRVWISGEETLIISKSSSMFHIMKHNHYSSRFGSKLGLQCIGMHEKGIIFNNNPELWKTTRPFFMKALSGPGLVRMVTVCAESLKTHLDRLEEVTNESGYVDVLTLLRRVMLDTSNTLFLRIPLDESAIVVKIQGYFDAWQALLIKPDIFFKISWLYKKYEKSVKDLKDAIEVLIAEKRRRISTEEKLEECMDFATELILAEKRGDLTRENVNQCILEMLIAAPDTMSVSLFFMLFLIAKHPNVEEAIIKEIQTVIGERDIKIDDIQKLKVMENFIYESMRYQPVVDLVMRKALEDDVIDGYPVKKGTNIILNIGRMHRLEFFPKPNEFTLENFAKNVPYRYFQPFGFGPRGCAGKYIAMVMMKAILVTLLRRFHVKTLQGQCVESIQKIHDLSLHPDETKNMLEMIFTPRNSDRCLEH

E1-STS = target: T3, E1-STS (Homo sapiens, UniProt P08842); conditions: 0.1 nM; cited from earlier work
T3 construct: host or cells: intact MCF-7 cells (endogenous enzyme)
T3 sequence (P08842 22-583): T1 sequence (P08842 22-583)

rat liver E1-STS = target: T4, rat liver E1-STS (Rattus norvegicus, UniProt P15589); conditions: administered orally or subcutaneously; cited from earlier work
T4 construct: host or cells: rat liver after oral or subcutaneous dosing
T4 sequence (P15589 20-577): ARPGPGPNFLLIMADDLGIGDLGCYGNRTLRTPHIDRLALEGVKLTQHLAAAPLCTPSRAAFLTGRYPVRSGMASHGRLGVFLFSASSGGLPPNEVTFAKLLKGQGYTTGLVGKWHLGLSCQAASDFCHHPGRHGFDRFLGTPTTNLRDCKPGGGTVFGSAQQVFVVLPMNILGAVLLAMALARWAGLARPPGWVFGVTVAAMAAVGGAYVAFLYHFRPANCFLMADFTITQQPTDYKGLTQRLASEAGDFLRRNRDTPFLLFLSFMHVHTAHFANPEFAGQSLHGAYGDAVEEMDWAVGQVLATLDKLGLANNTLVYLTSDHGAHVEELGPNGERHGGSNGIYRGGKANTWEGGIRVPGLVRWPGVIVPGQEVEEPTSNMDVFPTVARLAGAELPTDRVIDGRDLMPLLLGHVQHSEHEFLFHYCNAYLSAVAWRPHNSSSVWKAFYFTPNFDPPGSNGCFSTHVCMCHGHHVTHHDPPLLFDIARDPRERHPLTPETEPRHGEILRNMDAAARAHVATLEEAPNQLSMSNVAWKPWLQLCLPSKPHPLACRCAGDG

rat liver DHA-STS = target: T5, rat liver DHA-STS (Rattus norvegicus, UniProt P15589); conditions: administered orally or subcutaneously; cited from earlier work
T5 construct: host or cells: rat liver after oral or subcutaneous dosing
T5 sequence (P15589 20-577): T4 sequence (P15589 20-577)

steroid sulphatase [2] = target: T1, steroid sulphatase; experiment: Inhibition of steroid sulphatase activity in placental microsomes (Protocol 2); type: biochemical; parameters: host or cells: JEG3 choriocarcinoma cells (intact monolayers); conditions: read-out: SULPHATASE % inhibition at 10 μM in placental microsomes
Method: Inhibition of Steroid Sulphatase Activity in Placental Microsomes
Sulphatase-positive human placenta from normal term pregnancies are thoroughly minced with scissors and washed once with cold phosphate buffer (pH 7.4, 50 mM) then re-suspended in cold phosphate buffer (5 ml/g tissue). Homogenisation is accomplished with an Ultra-Turrax homogeniser, using three 10 second bursts separated by 2 minute cooling periods in ice. Nuclei and cell debris are removed by centrifuging (4° C.) at 2000 g for 30 minutes and portions (2 ml) of the supernatant are stored at […] The protein concentration of the supernatants is determined by the method of Bradford (Anal. Biochem., 72, 248-254 (1976)).
Incubations (1 ml) are carried out using a protein concentration of […], substrate concentration of […] [6,7-3H]oestrone-3-sulphate (specific activity 60 Ci/mmol from New England Nuclear, Boston, Mass., U.S.A.) and an incubation time of 20 minutes at 37° C. […] A portion (2 ml) of the organic phase was removed, evaporated and the 3H and 14C content of the residue determined by scintillation spectrometry. The mass of oestrone-3-sulphate hydrolysed is calculated from the 3H counts obtained (corrected for the volumes of the medium and organic phase used, and for recovery of [14C]oestrone added) and the specific activity of the substrate.

Compound: COc1cc2c(cc1OS(N)(=O)=O)CC[C@@H]1[C@@H]2CC[C@]2(C)C(=O)CC[C@@H]12 [2-methoxyoestrone-3-O-sulphamate]
oestrogenicity, in words (uterus; rat, in vivo): devoid of oestrogenicity
steroid sulphatase inhibition relative to EMATE, in words (steroid sulphatase [1]): equipotent with EMATE

AROMATASE inhibition, in words (aromatase): (No inhibition seen)
Compound: NS(=O)(=O)Oc1ccc(-c2cc(=O)c3cc(OS(N)(=O)=O)ccc3o2)cc1 [Compound H342F1]

Compound: CC12CCC3c4ccc(OS(N)(=O)=O)cc4CCC3C1CCC2=O (centres unmarked) [EMATE, oestrone-3-O-sulphamate]
inhibition of E1-STS activity in intact MCF-7 cells (E1-STS): more than 99%
oral uterotrophic activity relative to estradiol (uterus; rats, oral): 100 times
inhibition of rat liver E1-STS activity (rat liver E1-STS): 99%
inhibition of rat liver DHA-STS activity (rat liver DHA-STS): 99%

melting point: 228 to 230 °C
Compound: N#Cc1ccc(N(Cc2ccc(O)cc2)n2cnnc2)cc1 [STX265, 4-[(4-Hydroxylbenzyl)-[1,2,4]triazol-4-ylamino]benzonitrile]

inhibition at 10 µM (steroid sulphatase [2]): 14%
Compound: NS(=O)(=O)Oc1ccc(Cn2cncn2)cc1 [STX270, Sulfamic Acid 4-[1,2,4]triazol-1-ylmethylphenyl ester]

Compound: oestrone-3-N-sulphamate
steroid sulphatase inhibition relative to EMATE, in words (steroid sulphatase [1]): weaker non-time-dependent inactivators

Compound: oestrone-3-S-sulphamate
steroid sulphatase inhibition relative to EMATE, in words (steroid sulphatase [1]): weaker non-time-dependent inactivators
